Laboratory results published in patent publication US7709498B2, “Quinoline derivatives as antibacterial agents” (Janssen Pharmaceutica N.V., priority 2005, dated 2010).
Converted amounts (≈) assume the structure as drawn.

What was measured:
Type in all cases: cell-based
[1] = system: Staphylococcus aureus (ATCC29213); assay: Microtitre plate assay, IC90 determination, STA 29213; conditions: 90% inhibitory concentration for bacterial growth, 37° C., 24 hours, resazurin fluorescence
Method: (§1) The bacteria used in this study were grown overnight in flasks containing 100 ml Mueller-Hinton Broth (Becton Dickinson—cat. no. 275730) in sterile de-ionized water, with shaking, at 37° C. Stocks (0.5 ml/tube) were stored at −70° C. until use. Bacteria titrations were performed in microtiter plates to detect the TCID50, in which the TCID50 represents the dilution that gives rise to bacterial growth in 50% of inoculated cultures.
(§2) In general, an inoculum level of approximately 100 TCID50 was used for susceptibility testing.
Flat-bottom, sterile 96-well plastic microtiter plates were filled with 180 μl of sterile deionized water, supplemented with 0.25% BSA. Subsequently, stock solutions (7.8× final test concentration) of compounds were added in 45 μl volumes in column 2. Serial five-fold dilutions (45 μl in 180 μl) were made directly in the microtiter plates from column 2 to reach column 11. Untreated control samples with (column 1) and without (column 12) inoculum were included in each microtiter plate. […] At the end of incubation, one day after inoculation, the bacterial growth was quantitated fluorometrically. […] The fluorescence was read in a computer-controlled fluorometer (Cytofluor Biosearch) at an excitation wavelength of 530 nm and an emission wavelength of 590 nm. The % growth inhibition achieved by the compounds was calculated according to standard methods. […]

[2] = system: Staphylococcus aureus (ATCC25923); assay: Microtitre plate assay, IC90 determination, STA 25923; conditions: 90% inhibitory concentration for bacterial growth, 37° C., resazurin fluorescence; for IC90 (μg/ml) STA 25923: 24 hours
Method: as §1, §2
(§3) Flat-bottom, sterile 96-well plastic microtiter plates were filled with 180 μl of sterile deionized water, supplemented with 0.25% BSA. Subsequently, stock solutions (7.8× final test concentration) of compounds were added in 45 μl volumes in column 2. Serial five-fold dilutions (45 μl in 180 μl) were made directly in the microtiter plates from column 2 to reach column 11. Untreated control samples with (column 1) and without (column 12) inoculum were included in each microtiter plate. Depending on the bacteria type, approximately 10 to 60 CFU per well of bacteria inoculum (100 TCID50), in a volume of 100 μl in 2.8× Mueller-Hinton broth medium, was added to the rows A to H, except column 12. The same volume of broth medium without inoculum was added to column 12 in row A to H. The cultures were incubated at 37° C. for 24 hours under a normal atmosphere (incubator with open air valve and continuous ventilation). At the end of incubation, one day after inoculation, the bacterial growth was quantitated fluorometrically. Therefore resazurin (0.6 mg/ml) was added in a volume of 20 μl to all wells 3 hours after inoculation, and the plates were re-incubated overnight. A change in colour from blue to pink indicated the growth of bacteria. The fluorescence was read in a computer-controlled fluorometer (Cytofluor Biosearch) at an excitation wavelength of 530 nm and an emission wavelength of 590 nm. The % growth inhibition achieved by the compounds was calculated according to standard methods. The IC90 (expressed in μg/ml) was defined as the 90% inhibitory concentration for bacterial growth.
(§4) BSU 3639 means Bacillus subtilis (ATCC43639); ECO 25922 means Escherichia coli (ATCC25922); EFA 14506 means Enterococcus faecalis (ATCC14506); EFA 29212 means Enterococcus faecalis (ATCC29212); LMO 49594 means Listeria monocytogenes (ATCC49594); PAE 27853 means Pseudomonas aeruginosa (ATCC27853); SMU 33402 means Streptococcus mutans (ATCC33402); SPN 6305 means Streptococcus pneumoniae (ATCC6305); SPY 8668 means Streptococcus pyogens (ATCC8668); STA 43300 means Staphylococcus aureus (ATCC43300); STA 25923 means Staphylococcus aureus (ATCC25923); STA 29213 means Staphylococcus aureus (ATCC29213); STA RMETH means methicilline resistant Staphylococcus aureus (MRSA) (a clinical isolate from the University of Antwerp). ATCC means American type tissue culture.

[3] = system: Streptococcus pneumoniae (ATCC6305); assay: Microtitre plate assay, IC90 determination, SPN 6305; conditions: 90% inhibitory concentration for bacterial growth, 37° C., 24 hours, resazurin fluorescence
Method: as §1, §2, §3, §4

[4] = system: Streptococcus mutans (ATCC33402); assay: Microtitre plate assay, IC90 determination, SMU 33402; conditions: 90% inhibitory concentration for bacterial growth, 37° C., 24 hours, resazurin fluorescence
Method: as §1, §2, §3, §4

[5] = system: Streptococcus pyogens (ATCC8668); assay: Microtitre plate assay, IC90 determination, SPY 8668; conditions: 90% inhibitory concentration for bacterial growth, 37° C., 24 hours, resazurin fluorescence
Method: as §1, §2, §3, §4

[6] = system: Enterococcus faecalis (ATCC14506); assay: Microtitre plate assay, IC90 determination, EFA 14506; conditions: 90% inhibitory concentration for bacterial growth, 37° C., resazurin fluorescence; for IC90 (μg/ml) EFA 14506: 24 hours
Method: as §1, §2, §3, §4

[7] = system: Staphylococcus aureus (ATCC43300); assay: Microtitre plate assay, IC90 determination, STA 43300; conditions: 90% inhibitory concentration for bacterial growth, 37° C., 24 hours, resazurin fluorescence
Method: as §1, §2, §3, §4

[8] = system: Enterococcus faecalis (ATCC29212); assay: Microtitre plate assay, IC90 determination, EFA 29212; conditions: 90% inhibitory concentration for bacterial growth, 37° C., resazurin fluorescence; for IC90 (μg/ml) EFA 29212: 24 hours
Method: as §1, §2, §3, §4

[9] = system: Pseudomonas aeruginosa (ATCC27853); assay: Microtitre plate assay, IC90 determination, PAE 27853; conditions: 90% inhibitory concentration for bacterial growth, 37° C., 24 hours, resazurin fluorescence
Method: as §1, §2, §3, §4

[10] = system: Listeria monocytogenes (ATCC49594); assay: Microtitre plate assay, IC90 determination, LMO 49594; conditions: 90% inhibitory concentration for bacterial growth, 37° C., 24 hours, resazurin fluorescence
Method: as §1, §2, §3, §4

[11] = system: Bacillus subtilis (ATCC43639); assay: Microtitre plate assay, IC90 determination, BSU 43639; conditions: 90% inhibitory concentration for bacterial growth, 37° C., resazurin fluorescence; for IC90 (μg/ml) BSU 43639: 24 hours
Method: as §1, §2, §3, §4

[12] = system: methicilline resistant Staphylococcus aureus (MRSA) (a clinical isolate from the University of Antwerp); assay: Microtitre plate assay, IC90 determination, STA RMETH; conditions: 90% inhibitory concentration for bacterial growth, 37° C., resazurin fluorescence; for IC90 (μg/ml) STA RMETH: 24 hours
Method: as §1, §2, §3, §4

SMILES | IC90 (μg/ml) STA 29213 [1] [µg/mL] | IC90 (μg/ml) STA 25923 [2] [µg/mL] | IC90 (μg/ml) SPN 6305 [3] [µg/mL] | IC90 (μg/ml) SMU 33402 [4] [µg/mL] | IC90 (μg/ml) SPY 8668 [5] [µg/mL] | IC90 (μg/ml) EFA 14506 [6] [µg/mL] | IC90 (μg/ml) STA 43300 [7] [µg/mL] | IC90 (μg/ml) EFA 29212 [8] [µg/mL] | IC90 (μg/ml) PAE 27853 [9] [µg/mL] | IC90 (μg/ml) LMO 49594 [10] [µg/mL] | IC90 (μg/ml) BSU 43639 [11] [µg/mL] | IC90 (μg/ml) STA RMETH [12] [µg/mL] | IC90 ([6]; Enterococcus faecalis, ATCC14506, 24 h, read-out: IC90 (μg/ml) EFA 14506) [µg/mL] | IC90 ([11]; Bacillus subtilis, ATCC43639, 24 h, read-out: IC90 (μg/ml) BSU 43639) [µg/mL] | IC90 ([12]; Staphylococcus aureus, MRSA, 24 h, read-out: IC90 (μg/ml) STA RMETH) [µg/mL] | IC90 ([2]; Staphylococcus aureus, ATCC25923, 24 h, read-out: IC90 (μg/ml) STA 25923) [µg/mL] | IC90 ([8]; Enterococcus faecalis, ATCC29212, 24 h, read-out: IC90 (μg/ml) EFA 29212) [µg/mL]
CCNCCC(O)(c1ccc(F)cc1F)C(c1ccccc1)c1cc2cc(Br)ccc2nc1OC (racemic) [Compound A] | 12.1 (≈ 22.3 µM) | 10.8 (≈ 19.9 µM) | 1.1 (≈ 2.03 µM) | 10.8 (≈ 19.9 µM) | 10.8 (≈ 19.9 µM) |  |  |  |  |  |  |  |  |  |  |  | 
COc1nc2ccc(Br)cc2cc1C(c1ccccc1)C(O)(CCN(C)C)c1cccc2ccccc12 (stereo not shown) [Compound 15] |  |  | 6.2 (≈ 11.2 µM) | 12.4 (≈ 22.3 µM) | 2.2 (≈ 3.96 µM) | 24.8 (≈ 44.6 µM) | 5.0 (≈ 9 µM) | 5.0 (≈ 9 µM) | 12.4 (≈ 22.3 µM) | 2.5 (≈ 4.5 µM) | 24.8 (≈ 44.6 µM) |  |  |  |  |  | 
COc1nc2ccc(Br)cc2cc1C(c1ccccc1)C(O)(CCN1CCN(C)CC1)c1cc(Br)cc2ccccc12 (racemic) [Compound 151] |  |  |  |  |  | 15.4 (≈ 22.3 µM) |  |  |  |  |  | 15.4 (≈ 22.3 µM) |  |  |  |  | 
CSc1nc2ccc(Br)cc2cc1C(c1ccccc1)C(O)(CCN(C)C)c1ccccc1 (stereo not shown) [Compound 33] |  | 13.1 (≈ 25.1 µM) | 5.9 (≈ 11.3 µM) | 10.4 (≈ 19.9 µM) | 2.6 (≈ 4.99 µM) |  | 5.9 (≈ 11.3 µM) | 4.6 (≈ 8.82 µM) | 11.7 (≈ 22.4 µM) | 2.3 (≈ 4.41 µM) |  |  | 11.7 (≈ 22.4 µM) | 10.4 (≈ 19.9 µM) |  |  | 
COc1nc2ccc(Br)cc2cc1C(c1ccccc1)C(O)(CCN(C)C)c1cccc2ccccc12 (stereo not shown) [Compound 14] |  |  | 6.2 (≈ 11.2 µM) | 12.4 (≈ 22.3 µM) | 2.8 (≈ 5.04 µM) | 9.9 (≈ 17.8 µM) | 5.6 (≈ 10.1 µM) |  | 5.0 (≈ 9 µM) | 2.5 (≈ 4.5 µM) | 11.1 (≈ 20 µM) |  |  |  | 14 (≈ 25.2 µM) | 9.9 (≈ 17.8 µM) | 5 (≈ 9 µM)
COc1nc2ccc(Br)cc2cc1C(c1ccccc1)C(O)(CCN1CCN(C)CC1)c1ccc2cc(Br)ccc2c1 (racemic) [Compound 154] |  | 13.8 (≈ 20 µM) |  |  | 27.4 (≈ 39.7 µM) |  |  | 27.4 (≈ 39.7 µM) |  | 27.4 (≈ 39.7 µM) | 10.9 (≈ 15.8 µM) | 24.5 (≈ 35.5 µM) |  |  |  |  | 
